Legend:
S. littoralis [1] = assay: Synergistic activity against S. littoralis, 2 days after larvae exposition (% control; Colby); assay type: in vivo, Spodoptera littoralis
Procedure: (§1) A mixture combination were prepared by thoroughly mixing Tau-fluvalinate (weight %) with a crop protection chemical compound such as Flupyrimin, Isocycloseram, Methoxyfenozide and Garlic extract (weight %).
(§2) Different concentrations of each of the active ingredients may be applied to different species of insects. The percent controls are determined sometime after treatment.
(§3) A synergistic effect exists whenever the action of a combination of active ingredients is greater than the sum of the action of each of the ingredients alone. Therefore, a synergistic combination is a combination of active ingredients having an action that is greater than the sum of the action of each active ingredient alone, and a synergistically effective amount is an effective amount of a synergistic combination.
(§4) Colby's method is used to determine if synergy exists for a combination of active ingredients. According to Colby, the expected action (E) of active ingredients A+B is:
(§5) E=A+B−(AB/100) • where E=expected efficacy, A and B=the efficacy of two active ingredients A and B at a given dose.
(§6) When the percentage of control observed (O) for the combination is greater than the expected (E) percentage, there is a synergistic effect. The synergism ratio (R) is calculated as the ratio between the […].
(§7) The insecticidal compounds A (Tau fluvalinate) and B (mix partner) are formulated as equivalent compositions to eliminate the effects of differing formulation inerts on biological activity. Efficacy of the insecticidal compositions is evaluated with reference to a scale of 0% to 100% in comparison with untreated control plots. 0 means no damage and 100 means complete destruction of the harmful pests.
(§8) The experiments were conducted by applying either by synthesis/extraction or commercially available formulations of Tau fluvalinate and other mixture partners, alone or with their tank-mixed compositions with the same weight ratio. The compositions were diluted with water or some other suitable solvents to the stated concentration of the active compounds.
(§9) Each formulation with active ingredient is diluted with water or other suitable solvent(s) to the ppm (parts per million) level and biological efficacy trials on pests are conducted.

S. littoralis [2] = assay: Synergistic activity against S. littoralis, 3 days after larvae exposition (% control; Colby); assay type: in vivo, Spodoptera littoralis
Procedure: as §1, §2, §3, §4, §5, §6, §7, §8, §9

B. tabaci = assay: Synergistic activity against B. tabaci, 3 days after nymph exposition (% control; Colby); assay type: in vivo, Bemisia tabaci
Procedure: as §1, §2, §3, §4, §5, §6, §7, §8, §9

Structure (SMILES) | Observed % control (O) (S. littoralis [1]; Table 1B, 10 ppm) | Observed % control (O) (S. littoralis [1]; Table 4B, 8 ppm) | Observed % control (O) (S. littoralis [2]; Table 3, 2 ppm) | Observed % control (O) (B. tabaci; Table 4A, 0.2 ppm) | further results
CC(C)C(Nc1ccc(C(F)(F)F)cc1Cl)C(=O)OC(C#N)c1cccc(Oc2ccccc2)c1 (mixture of isomers) [Tau- Fluvalinate, (RS)-α-Cyano-3-phenoxybenzyl N-(2-chloro-α,α,α-trifluoro-p-tolyl)-D-valinate] | 43% | 45% | 22.5% | 10.4% | Observed % control (O) (S. littoralis [1]; Table 4B, 16 ppm): 62.5%; Observed % control (O) (S. littoralis [2]; Table 3, 0.2 ppm): 2.5%; Observed % control (O) (S. littoralis [2]; Table 3, 10 ppm): 67.5%; Observed % control (O) (B. tabaci; Table 1A, 0.1 ppm): 14%; Observed % control (O) (B. tabaci; Table 2, 20 ppm): 28.1%
O=C(/N=c1\ccccn1Cc1ccc(Cl)nc1)C(F)(F)F [Flupyrimin] | 0% |  |  |  | Observed % control (O) (S. littoralis [1]; Table 1B, 1 ppm): 0%; Observed % control (O) (S. littoralis [1]; Table 1B, 100 ppm): 18%
CCN1OC[C@@H](NC(=O)c2ccc(C3=NO[C@@](c4cc(Cl)c(F)c(Cl)c4)(C(F)(F)F)C3)cc2C)C1=O [Isocycloseram] |  | 12.2% |  | 25.5% | 
COc1cccc(C(=O)NN(C(=O)c2cc(C)cc(C)c2)C(C)(C)C)c1C [Methoxyfenozide] |  |  | 70% |  | Observed % control (O) (S. littoralis [2]; Table 3, 1 ppm): 52.5%
